PubChem BioAssay (NCI)
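Compound exposure: 48 hours, 5 concentrations, 96-well plates. TGI is the concentration that stops growth completely.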 Where a SMILES comes first, the peptide text is derived from it. [ ]: non-standard residue; d: D form. The star is where a group is joined. Tyr(3-Br) = N[C@@H](Cc1ccc(O)c(Br)c1)C(=O)O; Boc = CC(C)(C)OC(=O)*

How the values were obtained:
Assay in all cases: NCI-60 cell line screen, 48 h
HCC-2998 colon = system: HCC-2998 colon
HL-60(TB) leukemia = system: HL-60(TB) leukemia
OVCAR-8 ovarian = system: OVCAR-8 ovarian
SNB-19 CNS = system: SNB-19 CNS
SNB-75 CNS = system: SNB-75 CNS
TK-10 renal = system: TK-10 renal
U251 CNS = system: U251 CNS
UO-31 renal = system: UO-31 renal
NCI-H522 lung = system: NCI-H522 lung
HS 578T breast = system: HS 578T breast
MDA-MB-231 breast = system: MDA-MB-231 breast

| Structure (SMILES) | TGI (HCC-2998 colon) | TGI (HL-60(TB) leukemia) | TGI (OVCAR-8 ovarian) | TGI (SNB-19 CNS) | TGI (SNB-75 CNS) | TGI (TK-10 renal) | TGI (U251 CNS) | TGI (UO-31 renal) | TGI (NCI-H522 lung) | TGI (HS 578T breast) | TGI (MDA-MB-231 breast) |
| --- | --- | --- | --- | --- | --- | --- | --- | --- | --- | --- | --- |
| CCN(CC)CCCC(C)Nc1ccnc2ccc3nn(C)nc3c12 (stereo unspecified) | > 100 µM | > 100 µM | > 100 µM | > 100 µM | > 100 µM | > 100 µM | > 100 µM | > 100 µM | – | – | – |
| Clc1ccccc1C1=NN(c2ccccc2)C2c3ccccc3OCC12 (stereo unspecified) | > 100 µM | > 100 µM | > 100 µM | > 100 µM | > 100 µM | > 100 µM | > 100 µM | > 100 µM | > 100 µM | – | – |
| C/C=C\C(CC(=O)NCCC1CN(S(=O)(=O)C(F)(F)F)c2ccccc21)CC(=O)OC (stereo unspecified) | > 100 µM | – | > 100 µM | > 100 µM | – | – | > 100 µM | > 100 µM | 52 µM | 72.3 µM | > 100 µM |
| CCOc1ccc(NC(=O)/C(=N\NC(C)(C)C)C2C(=O)Nc3ccccc3S2=O)cc1 (stereo unspecified) | > 100 µM | > 100 µM | > 100 µM | > 100 µM | > 100 µM | > 100 µM | > 100 µM | > 100 µM | > 100 µM | > 100 µM | – |
| c1ccc(C2=NOC3(c4ccccc4)SC4CCCCC4CN23)cc1 (stereo unspecified) | > 100 µM | > 100 µM | – | > 100 µM | 84.8 µM | > 100 µM | 37.6 µM | > 100 µM | 22.6 µM | – | – |
| NC(=O)NC(=O)c1cccc(CNc2ccc(C(=O)N[C@@H](CCC(=O)O)C(=O)O)cc2)n1 | > 100 µM | > 100 µM | > 100 µM | – | – | > 100 µM | > 100 µM | > 100 µM | > 100 µM | > 100 µM | > 100 µM |
| CC=CCOc1cc(NC(=S)OC(C)C)ccc1Cl (mixture of isomers) | 30.3 µM | 55.7 µM | 33.9 µM | 56.6 µM | – | 29.2 µM | 32.8 µM | 24.7 µM | 28 µM | 43.9 µM | 51.5 µM |
| CCCCc1ccc(Nc2nc(=S)c3[nH]cnc3[nH]2)cc1 | 66.4 µM | 57.8 µM | – | 56.8 µM | – | 46.5 µM | > 100 µM | > 100 µM | 22.8 µM | 49.3 µM | 83.3 µM |
| Cc1c2c(n(CCc3ccccc3)c1C)N(C)N=C(C#N)S2(=O)=O | > 100 µM | – | > 100 µM | > 100 µM | > 100 µM | > 100 µM | > 100 µM | > 100 µM | > 100 µM | – | > 100 µM |
| CN(C)/N=C(/c1nc2ccc([N+](=O)[O-])cc2[nH]c1=O)C(O)c1ccco1 (stereo unspecified) | > 100 µM | > 100 µM | > 100 µM | > 100 µM | > 100 µM | – | > 100 µM | 90.5 µM | 92.2 µM | – | – |
| COc1ccc2c(c1)/C(=C\c1c(C)nc3sc(C)cn13)C(=O)N2 | 3.85 µM | 3.63 µM | 41.6 µM | > 100 µM | – | > 100 µM | 7.2 µM | > 100 µM | 1.53 µM | 10.3 µM | 73.6 µM |
| OC[C@]1(n2nc3ccccc3n2)OC[C@@H]1c1ccccc1 | > 100 µM | 93.9 µM | > 100 µM | > 100 µM | – | > 100 µM | > 100 µM | > 100 µM | 58.2 µM | > 100 µM | > 100 µM |
| O=C1NC(N2CCCCC2)=N/C1=C\c1cccs1 | > 100 µM | > 100 µM | > 100 µM | > 100 µM | – | > 100 µM | > 100 µM | > 100 µM | > 100 µM | > 100 µM | > 100 µM |
| O=c1[nH]c2cc([N+](=O)[O-])ccc2nc1/C(=N/Nc1ccccc1)C(O)c1ccc(C(O)/C(=N\Nc2ccccc2)c2cnc3cc([N+](=O)[O-])ccc3n2)cc1 (stereo unspecified) | 87.1 µM | > 100 µM | > 100 µM | > 100 µM | – | > 100 µM | – | > 100 µM | > 100 µM | – | – |
| CN(CCO)c1nc(N)cc(=O)[nH]1 | > 100 µM | > 100 µM | > 100 µM | > 100 µM | > 100 µM | > 100 µM | > 100 µM | > 100 µM | > 100 µM | – | – |
| COC(=O)[C@H](Cc1ccc(O)c(Br)c1)NC(=O)[C@H](Cc1ccc(O)cc1)NC(=O)OC(C)(C)C (Boc-Tyr-[Tyr(3-Br)]-OMe) | > 100 µM | > 100 µM | 37.5 µM | > 100 µM | > 100 µM | > 100 µM | – | > 100 µM | – | > 100 µM | – |
| COc1cc(NC(C)=O)ccc1C(=O)NN1C(=O)C(Cl)C1c1ccco1 (stereo unspecified) | – | > 100 µM | > 100 µM | > 100 µM | > 100 µM | – | – | > 100 µM | > 100 µM | – | – |
| COc1ccc(C2Oc3cc(OC)c(O)c(C)c3[C@H]2C)cc1 (stereo partly specified) | > 100 µM | 76.7 µM | > 100 µM | > 100 µM | 69.5 µM | > 100 µM | > 100 µM | 78 µM | > 100 µM | – | – |
| Cc1cc(S(=O)(=O)/N=C(\[N-]S(=O)(=O)c2ccc(Cl)cc2)[n+]2ccc(N(C)C)cc2)c(S)cc1Cl | > 100 µM | > 100 µM | > 100 µM | – | – | > 100 µM | > 100 µM | > 100 µM | > 100 µM | > 100 µM | > 100 µM |
| N#CC(=C1CCCCC1)c1nc2ccccc2o1 | > 100 µM | 75 µM | > 100 µM | > 100 µM | – | > 100 µM | > 100 µM | > 100 µM | 60.6 µM | > 100 µM | > 100 µM |
| COc1cc(/C=C2/SC(c3ccccc3)N(c3ccccc3)C2=O)cc(OC)c1OC (stereo unspecified) | > 100 µM | > 100 µM | > 100 µM | > 100 µM | – | > 100 µM | > 100 µM | > 100 µM | > 100 µM | > 100 µM | > 100 µM |
| O=C(Nc1nn(C(=O)c2ccc(Cl)cc2)c(=O)s1)c1ccc(Cl)cc1 | > 100 µM | > 100 µM | > 100 µM | > 100 µM | – | > 100 µM | > 100 µM | > 100 µM | > 100 µM | > 100 µM | > 100 µM |
